Reference: US10933141B2, “Formulations with reduced degradation of polysorbate” (Genentech, Inc., priority 2015, dated 2021)
“Also recorded” adds a separate entry of the source.

Columns and labels:
[1] = target: T1, Candida Antarctica Lipase B (CALB) (Moesziomyces antarcticus, UniProt P41365); assay: Enzymatic degradation of PS20 by CALB, PS20 by RP-ELSD; type: biochemical; conditions: for PS20 degradation (in words): 15% (w/v) excipient
T1 construct: purchased Sigma Aldrich Inc. (St. Louis, Mo.)
T1 sequence (P41365 26-342): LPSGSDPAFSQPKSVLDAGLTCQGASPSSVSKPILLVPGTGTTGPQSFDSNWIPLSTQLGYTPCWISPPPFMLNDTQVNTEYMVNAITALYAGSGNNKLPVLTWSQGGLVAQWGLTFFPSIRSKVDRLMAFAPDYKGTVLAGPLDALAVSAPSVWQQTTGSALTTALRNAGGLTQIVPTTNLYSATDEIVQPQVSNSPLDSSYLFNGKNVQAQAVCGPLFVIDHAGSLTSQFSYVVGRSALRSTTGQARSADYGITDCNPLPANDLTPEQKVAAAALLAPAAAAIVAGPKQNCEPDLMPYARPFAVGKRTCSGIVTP
Experimental: (§1) Polysorbate concentration was determined using reverse phase ultra-performance liquid chromatography using evaporative light scattering detection (RP-ELSD). Samples were analyzed using an Agilent 1100 series high performance liquid chromatography system (HPLC) fitted with a Waters Oasis MAX cartridge column (20×2.1 mm, 30 μm particle size). The HPLC system was set up with a switching valve directing column flow-through to either waste or a Varian 380-LC evaporative light scattering detector set to 100° C. The mobile phases consisted of 2% formic acid in water (Pump A) and 2% formic acid in isopropanol (Pump B). The pump gradient was isocratic at 10% pump B during equilibration, linear to 20% pump B for 1 minute, isocratic at 20% pump B for 2.4 minutes, linear to 100% pump B for 0.1 minutes, isocratic at 100% pump B for 1.1 minutes, linear to 10% pump B for 0.1 minutes, and finally isocratic at 10% pump B for 1.9 minutes. The switching valve directed column flow-through to waste at the beginning of every injection, and then directed flow to the detector after 2.4 minutes until the end of the gradient. In order to quantitate the PS20 concentration, a standard curve was generated by injecting 20 μL of solutions containing between 0% w/v and 0.4% w/v PS20. For excipients which affected the migration time of PS20 through the column, PS20 standard curve solutions containing the relevant excipient were included in the analysis to facilitate accurate quantitation.
[…] Samples of 0.02% PS20 in pH 5.5 buffer containing either no additional excipient, 15% Sucrose, […] the enzymes porcine pancreatic lipase (PPL), lipoprotein lipase (LPL), Candida Antarctica lipase (CALB) and rabbit liver esterase (RLE) at room temperature. PPL samples were digested with 15 μg/mL enzyme for 4.5 hours. LPL samples were digested with 70 μg/mL enzyme for 5 hours. CALB samples were digested with 0.1 mg/mL immobilized enzyme for 1 hour. RLE samples were digested with 15 μg/mL enzyme for 5 hours. All digestions were conducted at room temperature.
PPL digestion was stopped by heat inactivation in an 85° C. water bath for 30 minutes. LPL and RLE digestion could not be stopped by heat inactivation, so the samples were analyzed immediately for PS20 content. CALB digestion was stopped by filtering out the immobilized enzyme beads. In order to permit particle formation, CALB samples were placed at 5° C. overnight. RLE and LPL samples were frozen at −20° C. overnight to impede enzymatic activity and were then thawed over ice immediately prior to particle analysis.
As described above, all samples were analyzed for PS20 content by high performance liquid chromatography (Agilent 1100 series) with an inline evaporative light scattering detector (Varian 380-LC series). Visible particle inspection was conducted on a Seidenader visual inspection instrument. Subvisible particle analysis was conducted on a HIAC 9703 particle counter.

[2] = Solubilization of existing visible and subvisible particles from enzymatic PS20 degradation (HIAC, Seidenader); type: physicochemical; conditions: for amount of SVP after excipient spiked into degraded PS20 solution: 0.05% PS20 degraded with 37.5 μg/mL PPL, 35.5 mM HP-α-CD or HP-γ-CD, 0.5-15% HP-β-CD, 5° C. overnight, HIAC
Experimental: Subvisible particles were measured using a HIAC 9703 particle counter equipped with an HRDL-150 detector and a 1 mL syringe. Performance of the instrument was verified with NIST-traceable 2 μm Polystyrene bead standards at 3000 counts/mL before each measurement session. The HIAC instrument was configured to a 10 mL/min flow rate, 0.1 mL tare volume, and 0.4 mL sample volume. The samples were analyzed using 4 runs of 0.4 mL sips, with the first run of each sample was discarded to prevent measurement error due to sample carryover. Results were reported as the average values for 1.4, 2, 5, 10, 15, and 25, 50 μm analysis filter sizes.
Vials were inspected for visible particulates using a Seidenader V90-T visual inspection unit (Markt Schwaben, Germany) with vial carriage tilted to 60 degrees. Visible particle inspection of samples was performed by placing the glass vials in the holder and rotating in the presence of a Tyndall light directed through the bottom of the vial. Pre-rotation (i.e., fast rotation) was first performed to agitate the liquids, suspend, and circulate particles. Following rotation and illumination, the particles are in motion and the light causes reflections of the particles that make them visible (i.e., Tyndall effect). Visible particles were then observed using a magnifying lens. Videos and photographs of visible particles were obtained using a Samsung (seoul, South Korea) Galaxy device.
Several excipients were tested for their ability to solubilize particles produced as a result of enzymatic PS20 degradation. Solutions of concentrated HP-α-CD, HP-β-CD, HP-γ-CD, SBE-β-CD, PVP, PEG 1500, sucrose, and methionine were prepared in triplicate in pH 5.5 buffer. Particles from enzymatic PS20 degradation were prepared. Three solutions of 0.05% PS20 in pH 5.5 buffer were enzymatically degraded with 37.5 μg/mL PPL for 4.5 hours at room temperature, followed by 30 minutes of heat inactivation at 85° C. The degraded PS20 solutions were placed at 5° C. to allow for crystallization of particles.
After particle formation in the degraded PS20 solutions, the remaining sample preparation was conducted in a 5° C. cold room to prevent the PS20 derived particles from dissolving. Each degraded PS20 solution was divided into 11 aliquots and concentrated excipient was spiked into each the aliquots. The final concentration of excipient in each sample was as follows: 5% sucrose, 10 mg/mL methionine, 5% PVP, 5% PEG 1500, 15% HP-β-CD, 5% HP-β-CD, 0.5% HP-β-CD, 35.5 mM HP-α-CD, 35.5 mM HP-γ-CD, and 35.5 mM SBE-β-CD. After the addition of each excipient, samples were left at 5° C. overnight. The following day, vials were inspected for visible particles under a Seidenader visual inspection instrument. Subvisible particle counts were measured using a HIAC 9703 particle counter.

[3] = Oxidative PS20 degradation with AAPH, PS20 by RP-ELSD; type: physicochemical; conditions: 15% (w/v) excipient; 5 mM AAPH at 40° C. for 24 hours; n=3
Experimental: as §1, with “The pump gradient was isocratic at 10% pump B during equilibration, linear to 20% pump B for 1 minute, isocratic at 20% pump B for 2.4 minutes, linear to 100% pump B for 0.1 minutes, isocratic at 100% pump B for 1.1 minutes, linear to 10% pump B for 0.1 minutes, and finally isocratic at 10% pump B for 1.9 minutes. The switching valve directed column flow-through to waste at the beginning of every injection, and then directed flow to the detector after 2.4 minutes until the end of the gradient.” left out
The ability of cyclodextrins to inhibit oxidative PS20 degradation was evaluated using 2,2′-Azobisisobutyramidinium (AAPH), which has been shown previously to degrade PS20 (Borisov et al., J. Pharm. Sci. 104:1005-1018 (2015)). […] Polysorbate 20 degradation was determined by RP-ELSD for samples oxidized with 5 mM AAPH at 40° C. for 24 hours containing no excipient (control), 15% (w/v) sucrose, and 15% (w/v) HP-β-CD.

[4] = 0.02 (w/v) PS20, CALB digestion (FIG. 9)

Molecule	PS20 degradation ([1]; 15% HP-γ-CD, 0.02 (w/v) PS20, CALB digestion (FIG. 9)) [%]	amount of SVP after excipient spiked into degraded PS20 solution [2]	PS20 degradation (in words) [1, 4]	Polysorbate 20 (Relative %) ([1]; 15% w/v HP-β-CD, 0.02% PS20, pH 5.5, 0.1 mg/mL immobilized CALB, 1 hour, room temperature) [%]	decrease in relative percent PS20 [3] [%]	visible particles after spiking excipient ([2]; 15% (w/v) HP-β-CD, PS20 particles from PPL digestion)
2-hydroxypropyl-γ-cyclodextrin [HP-γ-CD]	~82	significantly reduce the amount of SVP				
2-hydroxypropyl-β-cyclodextrin [HP-β-CD]		significantly reduce the amount of SVP	no significant PS20 degradation	85.7	3.6	immediate solubilization of visible particles; also recorded: no visible particles
OC[C@H]1O[C@@](CO)(O[C@H]2O[C@H](CO)[C@@H](O)[C@H](O)[C@H]2O)[C@@H](O)[C@@H]1O [sucrose, reference compound]			significant decreases in PS20 concentration		9.8	
2-hydroxypropyl-α-cyclodextrin [HP-α-CD]		significantly reduce the amount of SVP	no significant PS20 degradation			
